Laboratory results taken from paper PMC8535469, “Insight into the Binding and Hydrolytic Preferences of hNudt16 Based on Nucleotide Diphosphate Substrates” (International Journal of Molecular Sciences, 2021).
Where two headings read alike, the source gives them in different places.

Experiments:
hNudt16E76Q [1] = target: T1, hNudt16E76Q (Homo sapiens, UniProt Q96DE0, E76Q); experiment: Thermal stability of hNudt16E76Q with ligands, DSF with SYPRO Orange; assay type: binding; conditions: 5 µM hNudt16E76Q, 20 mM MgCl2, 0.5 mM ligand, 4× SYPRO Orange; for ∆Tm, DSF (with SYPRO Orange): relative to apo
T1 construct: 4xHis (four added histidines); made in house; host or cells: E. coli Rosetta 2 (DE3), pET16b
T1 sequence (Q96DE0 whole entry E76Q): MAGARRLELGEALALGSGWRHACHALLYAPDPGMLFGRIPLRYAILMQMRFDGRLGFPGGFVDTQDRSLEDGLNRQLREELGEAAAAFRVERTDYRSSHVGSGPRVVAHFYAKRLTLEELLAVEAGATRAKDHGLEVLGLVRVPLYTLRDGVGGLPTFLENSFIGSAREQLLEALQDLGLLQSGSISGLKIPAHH
Experimental: The protein thermal stability of wild-type hNudt16 and all tested mutants in the presence of increasing Mg^2+ ion concentration was measured using DSF with SYPRO orange dye on CFX RT-PCR (Bio-Rad, Hercules, CA, USA). This method is based on the change in fluorescence of the SYPRO orange dye in an aqueous buffer, which is strongly quenched, while its binding to the exposed hydrophobic regions of thermally unfolded protein results in an increased fluorescence. The optimal concentrations of protein, SYPRO orange dye, and buffer composition, in particular ion content, were determined. The samples were prepared and measured in clear 96-well multiplate PCR plates for RT-PCR (Bio-Rad, Hercules, CA, USA). […] The individual components of the solution were added in equal volumes to each well, with a final sample volume of 25 μL/well. The samples were gently mixed, and the 96-well plate was covered with optically clear PCR sealing tape (Bio-Rad, Hercules, CA, USA) to prevent evaporation. […] The data processing procedure was performed using Bio-Rad CFX Manager (version 1.6.541.1028), and melting point temperatures were calculated as the minimum of the first derivative plot.
(§1) Protein thermal stability in the presence of various ligands was measured using two DSF methods: assays with SYPRO orange dye and dye-free assays. DSF assays with SYPRO orange dye were performed at specific ligand concentrations for each protein–ligand pair. This measurement was performed as described in Section 4.6.1, with a constant MgCl2 concentration of 20 mM and a concentration of the tested ligand maintained at 0.5 mM. DSF dye-free measurements were performed using a Prometheus NT.48 nanoDSF device (NanoTemper Technologies, München, Germany). The composition of the samples was identical to that in the DSF with SYPRO orange dye measurements, without the addition of any dye. […] The measurements were performed at a single ligand concentration for all ligands. After 10 min of pre-incubation, the samples were loaded into standard capillaries (NanoTemper Technologies, München, Germany). […] We fitted the melting temperatures (Tm) globally for at least three independent experiments (but separately for different DSF methods).

hNudt16 [2] = target: T2, hNudt16 (Homo sapiens, UniProt Q96DE0); experiment: Enzymatic hydrolysis catalyzed by hNudt16, products quantified by HPLC; assay type: biochemical; design: 4xHis (four added histidines); made in house; conditions: 20 µM substrate, 37 °C; for Hydrolysis Products / Hydrolysis Rate, v/[E]0 (hydrolyzed substrate per minute per [enzyme] µM) / Hydrolysis Rate, v/µg (hydrolyzed substrate per minute per enzyme µg): pH 7.9, 6 mM MgCl2, nd = hydrolysis products not detected
T2 sequence (Q96DE0 whole entry): as the sequence (Q96DE0 whole entry E76Q) above, with Q76E counted along it
Experimental: Enzymatic hydrolysis catalyzed by hNudt16 was performed at 37 °C in 40 mM Tris buffer (pH 7.9) containing 100 mM NaCl, 6 mM MgCl2, and 2 mM DTT. The concentration of the investigated dinucleotides and mononucleotides was 20 µM in the reaction mixture.
(§2) The hydrolytic susceptibility of the compounds was studied using HPLC. Before each experiment, 1 mL of buffer solution containing the analyte was incubated at 37 °C for 10 min. The hydrolysis process was initiated by the addition of hNudt16. To analyze the reaction progress, 200-µL aliquots of the reaction mixture were withdrawn and incubated at 96 °C for 5 min to stop the reaction through heat inactivation of the enzyme. The samples were then subjected to an HPLC system (Agilent 1200 series, Agilent Technologies, California, USA) with a reverse-phase Supelcosil LC-18-T column and UV/VIS detector. The substrates and hydrolysis products were eluted at 20 °C with a linear gradient of methanol in 0.1 M KH2PO4 (from 0% to 40%) over 15 min at a flow rate of 1.0 mL/min. Changes in the absorbance at 260 nm were continuously monitored during the analysis. Hydrolysis products were identified by comparing their retention times with those of the reference samples. The extent of decapping, determined as the percentage of the hydrolyzed substrate, was calculated using the area under the chromatographic peak of the respective compounds.

hNudt16E76Q [3] = target: T1, hNudt16E76Q; experiment: Thermal stability of hNudt16E76Q with ligands, dye-free nanoDSF; assay type: binding; conditions: for Tm, nanoDSF (Dye-Free) / ∆Tm, nanoDSF (Dye-Free): 5 µM hNudt16E76Q, 20 mM MgCl2, 0.5 mM ligand; for ∆Tm, nanoDSF (Dye-Free): relative to apo
Experimental: as §1

hNudt16E76Q [4] = target: T1, hNudt16E76Q; experiment: Microscale thermophoresis (MST) binding, two independent binding sites model; conditions: for ΔGdiss1 (for Kd1): calculated as −RTlnKd from MST Kd1; for ΔGdiss2 (for Kd2): calculated as −RTlnKd from MST Kd2
Experimental: Binding constants for protein–ligand pairs were established using the MST method. The hNudt16 E76Q was labeled with RED-tris-NTA 2nd Generation dye (Monolith HIS-tag labeling Kit, NanoTemper Technologies, München, Germany) according to the manufacturer’s instructions. Measurements were carried out in a wide range of ligand concentrations, selected after preliminary tests for each of the ligands. The results obtained were used to determine of binding parameters for a given ligand. Each MST measurement consisted of a series of 16 serial 1:2 dilutions of the ligand, and was performed at a constant dye-labeled protein concentration of 50 nM. After 10 min of pre-incubation, dye-labeled protein–ligand samples were manually loaded into Monolith™ NT.115 Premium Capillaries (NanoTemper Technologies, München, Germany) and analyzed using the Monolith NT.115 (NanoTemper Technologies). […] Analysis was performed using Origin package (OriginLab, Northampton, MA, USA) and dissociation constants were fitted globally for a series of at least six MST pseudo-titration experiments for each ligand. Up to 10 replicates were performed for some ligands.
For the dissociation constants obtained, we also calculated the free energy associated with the dissociation of the complex ΔGdiss according to the equation: ΔGdiss=−RTlnKd.

hNudt16E76Q [5] = target: T1, hNudt16E76Q; experiment: Hydrolytic properties of E76Q mutant tested by HPLC; assay type: biochemical
Experimental: as §2

hNudt16 EE-QQ = target: T3, hNudt16 EE-QQ (Homo sapiens, UniProt Q96DE0, E79Q/E80Q); experiment: Hydrolytic properties of EE-QQ mutant tested by HPLC; assay type: biochemical
T3 construct: 4xHis (four added histidines); made in house; host or cells: E. coli Rosetta 2 (DE3), pET16b
T3 sequence (Q96DE0 whole entry E79Q/E80Q): as the sequence (Q96DE0 whole entry E76Q) above, with Q76E, E79Q, E80Q counted along it
Experimental: as §2

hNudt16 EE-KK = target: T4, hNudt16 EE-KK (Homo sapiens, UniProt Q96DE0, E79K/E80K); experiment: Hydrolytic properties of EE-KK mutant tested by HPLC; assay type: biochemical
T4 construct: 4xHis (four added histidines); made in house; host or cells: E. coli Rosetta 2 (DE3), pET16b
T4 sequence (Q96DE0 whole entry E79K/E80K): as the sequence (Q96DE0 whole entry E76Q) above, with Q76E, E79K, E80K counted along it
Experimental: as §2

wild-type hNudt16 = target: T5, wild-type hNudt16 (Homo sapiens, UniProt Q96DE0); experiment: Thermal stability of wild-type hNudt16 with ligands, nanoDSF; assay type: binding; conditions: 20 mM MgCl2, same conditions as E76Q
T5 construct: 4xHis (four added histidines); made in house
T5 sequence (Q96DE0 whole entry): as the sequence (Q96DE0 whole entry E76Q) above, with Q76E counted along it
Experimental: This allow us to conclude that there is no negative effect of the mutation on protein stabilization by studied compounds.
Protein thermal stability in the presence of various ligands was measured using two DSF methods: assays with SYPRO orange dye and dye-free assays. DSF assays with SYPRO orange dye were performed at specific ligand concentrations for each protein–ligand pair. This measurement was performed as described in Section 4.6.1, with a constant MgCl2 concentration of 20 mM and a concentration of the tested ligand maintained at 0.5 mM. DSF dye-free measurements were performed using a Prometheus NT.48 nanoDSF device (NanoTemper Technologies, München, Germany). The composition of the samples was identical to that in the DSF with SYPRO orange dye measurements, without the addition of any dye. The conditions during measurements were as follows: 5 µM protein, 20 mM MgCl2, 10 mM HEPES pH 7.9, 150 mM NaCl, 5% glycerol, 1 mM TCEP, and 0.5 mM ligand. The measurements were performed at a single ligand concentration for all ligands. After 10 min of pre-incubation, the samples were loaded into standard capillaries (NanoTemper Technologies, München, Germany). During the measurement, the samples were heated in a temperature range of 20–95 °C at a rate of 1 °C/min, and the measurements were performed with an excitation power of 30%. All of the collected data measured with using the above two DSF methods were analyzed according to the two-state transition numerical model described previously, using the Marquardt algorithm implemented in the Origin 2019 package (OriginLab, Northampton, MA, USA). We fitted the melting temperatures (Tm) globally for at least three independent experiments (but separately for different DSF methods).

hNudt16 [6] = target: T2, hNudt16; conditions: cited from earlier work
[7] = second, weaker binding site, read-out: Kd2
[8] = stronger binding site, 50 nM dye-labeled protein, read-out: Kd1

C[n+]1cn([C@@H]2O[C@H](COP(=O)([O-])OP(=O)(O)OC[C@H]3O[C@@H](n4cnc5c(=O)[nH]c(N)nc54)[C@H](O)[C@@H]3O)[C@@H](O)[C@H]2O)c2nc(N)[nH]c(=O)c21 [m^7GppG]
Tm, DSF (with SYPRO Orange) (hNudt16E76Q [1]): 78.2 ± 0.1 °C | ∆Tm, DSF (with SYPRO Orange) (hNudt16E76Q [1]): 14.4 ± 0.1 °C | Hydrolysis Products (hNudt16 [2]): m^7GMP + GMP | Hydrolysis Rate, v/[E]0 (hydrolyzed substrate per minute per [enzyme] µM) (hNudt16 [2]): 722.6 ± 68.6 µM/min/[E]0 | Hydrolysis Rate, v/µg (hydrolyzed substrate per minute per enzyme µg) (hNudt16 [2]): 30.11 ± 2.81 µM/min/µg | Tm, nanoDSF (Dye-Free) (hNudt16E76Q [3]): 80.2 ± 0.1 °C | ∆Tm, nanoDSF (Dye-Free) (hNudt16E76Q [3]): 15.2 ± 0.1 °C | ΔGdiss1 (for Kd1) (hNudt16E76Q [4]): 9.063 kcal/mol | ΔGdiss2 (for Kd2) (hNudt16E76Q [4]): 6.154 kcal/mol | Kd (hNudt16E76Q [4]; [7]): 30.2 ± 2.5 µM | Kd (hNudt16E76Q [4]; [8]): 0.22 ± 0.087 µM | Hydrolytic activity of E76Q mutant (hNudt16E76Q [5]): none of the mutants exhibited hydrolytic activity

Nc1nc2c(ncn2[C@@H]2O[C@H](COP(=O)(O)OP(=O)(O)OC[C@H]3O[C@@H](n4cnc5c(=O)[nH]c(N)nc54)[C@H](O)[C@@H]3O)[C@@H](O)[C@H]2O)c(=O)[nH]1 [GppG]
Tm, DSF (with SYPRO Orange) (hNudt16E76Q [1]): 81.2 ± 0.1 °C | ∆Tm, DSF (with SYPRO Orange) (hNudt16E76Q [1]): 17.5 ± 0.1 °C | Hydrolytic activity of EE-QQ mutant (hNudt16 EE-QQ): none of the mutants exhibited hydrolytic activity | Hydrolytic activity of EE-KK mutant (hNudt16 EE-KK): none of the mutants exhibited hydrolytic activity | Hydrolysis Products (hNudt16 [2]): GMP | Hydrolysis Rate, v/[E]0 (hydrolyzed substrate per minute per [enzyme] µM) (hNudt16 [2]): 5454.5 ± 436.3 µM/min/[E]0 | Hydrolysis Rate, v/µg (hydrolyzed substrate per minute per enzyme µg) (hNudt16 [2]): 227.27 ± 18.25 µM/min/µg | Tm, nanoDSF (Dye-Free) (hNudt16E76Q [3]): 83.1 ± 0.1 °C | ∆Tm, nanoDSF (Dye-Free) (hNudt16E76Q [3]): 18.0 ± 0.1 °C | ΔTm relative to the apo form, both DSF and nanoDSF (hNudt16E76Q [3]; 0.5 mM ligand, stated for both types of measurements): 17.5–18.0 °C | ΔGdiss1 (for Kd1) (hNudt16E76Q [4]): 9.708 kcal/mol | ΔGdiss2 (for Kd2) (hNudt16E76Q [4]): 7.89 kcal/mol | Kd (hNudt16E76Q [4]; [7]): 1.6 ± 0.4 µM | Kd (hNudt16E76Q [4]; [8]): 0.073 ± 0.023 µM | Hydrolytic activity of E76Q mutant (hNudt16E76Q [5]): none of the mutants exhibited hydrolytic activity

Nc1nc2c(ncn2[C@@H]2O[C@H](COP(=O)(O)O)[C@@H](O)[C@H]2O)c(=O)[nH]1 [GMP, Guanosine monophosphate]
Tm, DSF (with SYPRO Orange) (hNudt16E76Q [1]): 68.0 ± 0.1 °C | ∆Tm, DSF (with SYPRO Orange) (hNudt16E76Q [1]): 4.3 ± 0.1 °C | Tm, wild-type hNudt16, nanoDSF (wild-type hNudt16): 70.8 ± 0.1 °C | ΔTm, wild-type hNudt16, nanoDSF (wild-type hNudt16): 3.5 ± 0.1 °C | Tm, nanoDSF (Dye-Free) (hNudt16E76Q [3]): 69.1 ± 0.1 °C | ∆Tm, nanoDSF (Dye-Free) (hNudt16E76Q [3]): 4.0 ± 0.1 °C

Adenosine diphosphate ribose [ADPr]
Tm, DSF (with SYPRO Orange) (hNudt16E76Q [1]): 63.6 ± 0.1 °C | ∆Tm, DSF (with SYPRO Orange) (hNudt16E76Q [1]): −0.1 ± 0.1 °C | Susceptibility to hydrolysis by hNudt16 (in words) (hNudt16 [2]; HPLC): resistant to hydrolytic cleavage | Tm, wild-type hNudt16, nanoDSF (wild-type hNudt16): 68.1 ± 0.1 °C | ΔTm, wild-type hNudt16, nanoDSF (wild-type hNudt16): 0.9 ± 0.1 °C | Tm, nanoDSF (Dye-Free) (hNudt16E76Q [3]): 66.0 ± 0.1 °C | ∆Tm, nanoDSF (Dye-Free) (hNudt16E76Q [3]): 0.9 ± 0.1 °C | ΔGdiss2 (for Kd2) (hNudt16E76Q [4]): ≤2.32 kcal/mol | Km (hNudt16 [6]): ~1000 µM
